The source of these data is ChEMBL document CHEMBL3991601, “The target landscape of clinical kinase drugs” (Science, 2017).

Assay [1] deals with Platelet-derived growth factor receptor beta (Homo sapiens, UniProt P09619).
The target in assay [2] is Tyrosine-protein kinase CSK (Homo sapiens, UniProt P41240).
Assay [3] has as its target Ephrin type-A receptor 5 (Homo sapiens, UniProt P54756).
For assay [4], the target named is T1, General transcription and DNA repair factor IIH helicase subunit XPD (Homo sapiens, UniProt P18074).
T1 sequence (P18074 whole entry): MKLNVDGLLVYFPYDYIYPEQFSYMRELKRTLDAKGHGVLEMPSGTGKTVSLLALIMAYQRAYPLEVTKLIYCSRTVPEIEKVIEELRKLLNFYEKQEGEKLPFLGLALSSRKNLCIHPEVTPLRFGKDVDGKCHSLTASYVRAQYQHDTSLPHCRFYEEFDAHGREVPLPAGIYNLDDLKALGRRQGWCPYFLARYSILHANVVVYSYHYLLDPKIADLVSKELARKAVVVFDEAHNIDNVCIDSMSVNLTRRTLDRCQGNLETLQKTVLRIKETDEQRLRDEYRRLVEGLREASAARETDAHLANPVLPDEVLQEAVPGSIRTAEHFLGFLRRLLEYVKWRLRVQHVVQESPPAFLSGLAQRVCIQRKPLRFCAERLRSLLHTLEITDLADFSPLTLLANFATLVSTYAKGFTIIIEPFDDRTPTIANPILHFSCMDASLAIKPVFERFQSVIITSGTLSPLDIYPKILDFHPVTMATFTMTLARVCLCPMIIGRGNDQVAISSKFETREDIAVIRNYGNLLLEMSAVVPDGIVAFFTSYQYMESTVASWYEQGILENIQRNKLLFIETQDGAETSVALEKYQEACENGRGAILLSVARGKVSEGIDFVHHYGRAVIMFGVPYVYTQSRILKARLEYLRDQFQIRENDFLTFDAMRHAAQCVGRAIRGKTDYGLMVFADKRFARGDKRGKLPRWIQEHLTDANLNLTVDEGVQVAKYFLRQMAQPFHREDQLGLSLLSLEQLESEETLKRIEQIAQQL
The note with it: read-out: Kd apparent; k-562, colo 205, sk-n-be(2) and mv-4-11.

Assay [5] concerns the target T2, ADP/ATP translocase 3 (Homo sapiens, UniProt P12236).
T2 sequence (P12236 whole entry): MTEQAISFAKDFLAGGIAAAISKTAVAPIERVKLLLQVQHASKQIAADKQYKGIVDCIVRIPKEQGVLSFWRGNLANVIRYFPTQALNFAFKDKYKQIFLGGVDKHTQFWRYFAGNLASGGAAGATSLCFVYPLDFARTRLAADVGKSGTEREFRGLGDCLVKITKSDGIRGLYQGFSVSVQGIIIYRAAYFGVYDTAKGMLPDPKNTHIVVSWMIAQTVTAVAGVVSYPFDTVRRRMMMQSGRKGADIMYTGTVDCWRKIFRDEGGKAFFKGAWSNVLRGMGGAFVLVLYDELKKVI

In assay [6] the target is Bone morphogenetic protein receptor type-1A (Homo sapiens, UniProt P36894).
For assay [7], the target named is Mitogen-activated protein kinase kinase kinase 20 (Homo sapiens, UniProt Q9NYL2).
Assay [8] has as its target T3, Serine/threonine-protein kinase ULK1 (Homo sapiens, UniProt O75385).
T3 sequence (O75385 whole entry): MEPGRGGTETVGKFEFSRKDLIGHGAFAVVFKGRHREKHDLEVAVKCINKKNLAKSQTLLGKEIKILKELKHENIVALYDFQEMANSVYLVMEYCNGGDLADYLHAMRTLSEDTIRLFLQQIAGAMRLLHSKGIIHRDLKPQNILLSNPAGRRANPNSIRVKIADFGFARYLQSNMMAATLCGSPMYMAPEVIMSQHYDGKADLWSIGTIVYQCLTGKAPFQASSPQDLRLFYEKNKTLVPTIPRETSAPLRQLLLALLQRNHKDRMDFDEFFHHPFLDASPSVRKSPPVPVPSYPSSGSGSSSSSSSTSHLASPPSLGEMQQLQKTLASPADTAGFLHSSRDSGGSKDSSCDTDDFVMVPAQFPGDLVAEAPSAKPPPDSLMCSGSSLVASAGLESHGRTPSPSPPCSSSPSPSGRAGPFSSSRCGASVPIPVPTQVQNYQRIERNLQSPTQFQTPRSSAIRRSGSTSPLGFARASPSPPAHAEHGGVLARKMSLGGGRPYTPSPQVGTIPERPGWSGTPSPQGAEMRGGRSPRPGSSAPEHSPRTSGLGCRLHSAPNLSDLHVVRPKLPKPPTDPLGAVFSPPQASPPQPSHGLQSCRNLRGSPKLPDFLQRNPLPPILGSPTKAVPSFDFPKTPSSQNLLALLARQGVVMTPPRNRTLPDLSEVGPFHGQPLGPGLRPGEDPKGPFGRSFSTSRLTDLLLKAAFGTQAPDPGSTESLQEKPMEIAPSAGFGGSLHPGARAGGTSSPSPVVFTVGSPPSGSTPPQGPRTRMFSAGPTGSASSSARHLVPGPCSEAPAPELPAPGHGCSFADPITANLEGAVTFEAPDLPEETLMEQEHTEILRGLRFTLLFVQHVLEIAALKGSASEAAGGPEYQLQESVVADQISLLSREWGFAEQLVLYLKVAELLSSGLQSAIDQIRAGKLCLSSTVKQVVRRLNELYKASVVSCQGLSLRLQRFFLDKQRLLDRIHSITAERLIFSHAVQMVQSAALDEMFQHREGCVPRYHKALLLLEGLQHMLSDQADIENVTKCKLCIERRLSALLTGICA

Active and inactive are the calls of the source. Rule as the data show it, for most assays here: actives have a measured Kd and inactives only a lower limit.
Also: in the data inactive means no Kd found up to 30 µM.

Chain of Tyrosine-protein kinase CSK (P41240 whole entry): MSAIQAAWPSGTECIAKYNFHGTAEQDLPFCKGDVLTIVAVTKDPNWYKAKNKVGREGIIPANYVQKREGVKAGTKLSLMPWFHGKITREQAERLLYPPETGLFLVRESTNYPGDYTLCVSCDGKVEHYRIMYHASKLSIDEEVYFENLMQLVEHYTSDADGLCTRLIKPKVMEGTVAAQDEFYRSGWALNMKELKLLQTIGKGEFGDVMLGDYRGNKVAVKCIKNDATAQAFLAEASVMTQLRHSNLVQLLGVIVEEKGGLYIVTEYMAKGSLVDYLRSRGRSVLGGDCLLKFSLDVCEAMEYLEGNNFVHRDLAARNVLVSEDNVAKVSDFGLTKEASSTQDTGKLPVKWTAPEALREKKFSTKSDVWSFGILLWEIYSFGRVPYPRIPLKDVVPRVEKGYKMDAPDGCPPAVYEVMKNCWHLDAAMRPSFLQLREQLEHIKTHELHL
Chain of Platelet-derived growth factor receptor beta (P09619 whole entry): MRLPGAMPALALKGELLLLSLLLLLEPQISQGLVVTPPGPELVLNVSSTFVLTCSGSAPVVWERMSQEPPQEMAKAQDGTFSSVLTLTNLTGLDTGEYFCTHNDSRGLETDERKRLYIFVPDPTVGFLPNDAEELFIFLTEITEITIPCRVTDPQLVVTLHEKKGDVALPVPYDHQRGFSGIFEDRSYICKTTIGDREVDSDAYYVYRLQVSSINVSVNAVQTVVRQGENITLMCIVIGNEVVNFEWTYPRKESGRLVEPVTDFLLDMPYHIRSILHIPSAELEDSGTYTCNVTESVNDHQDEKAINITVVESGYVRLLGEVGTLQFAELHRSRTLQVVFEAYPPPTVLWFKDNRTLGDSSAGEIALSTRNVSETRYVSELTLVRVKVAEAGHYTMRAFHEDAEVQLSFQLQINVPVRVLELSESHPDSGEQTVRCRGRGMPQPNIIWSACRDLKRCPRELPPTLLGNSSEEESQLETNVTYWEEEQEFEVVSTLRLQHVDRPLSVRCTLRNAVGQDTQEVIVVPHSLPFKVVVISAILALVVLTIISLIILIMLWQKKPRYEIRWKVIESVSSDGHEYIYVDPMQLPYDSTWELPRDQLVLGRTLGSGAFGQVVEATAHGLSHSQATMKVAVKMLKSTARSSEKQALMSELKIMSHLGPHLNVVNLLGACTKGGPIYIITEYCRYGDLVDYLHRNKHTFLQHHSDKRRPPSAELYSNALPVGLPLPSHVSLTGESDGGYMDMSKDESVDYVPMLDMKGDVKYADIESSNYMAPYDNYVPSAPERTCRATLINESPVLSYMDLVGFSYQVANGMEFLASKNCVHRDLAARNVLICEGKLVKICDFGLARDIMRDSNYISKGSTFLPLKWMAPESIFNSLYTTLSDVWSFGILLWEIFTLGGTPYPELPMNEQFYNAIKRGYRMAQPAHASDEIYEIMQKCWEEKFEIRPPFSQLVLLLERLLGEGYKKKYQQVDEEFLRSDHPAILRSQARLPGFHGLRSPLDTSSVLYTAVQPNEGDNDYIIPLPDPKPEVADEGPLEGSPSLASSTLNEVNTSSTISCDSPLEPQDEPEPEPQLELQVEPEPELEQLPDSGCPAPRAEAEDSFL
Chain of Ephrin type-A receptor 5 (P54756 whole entry): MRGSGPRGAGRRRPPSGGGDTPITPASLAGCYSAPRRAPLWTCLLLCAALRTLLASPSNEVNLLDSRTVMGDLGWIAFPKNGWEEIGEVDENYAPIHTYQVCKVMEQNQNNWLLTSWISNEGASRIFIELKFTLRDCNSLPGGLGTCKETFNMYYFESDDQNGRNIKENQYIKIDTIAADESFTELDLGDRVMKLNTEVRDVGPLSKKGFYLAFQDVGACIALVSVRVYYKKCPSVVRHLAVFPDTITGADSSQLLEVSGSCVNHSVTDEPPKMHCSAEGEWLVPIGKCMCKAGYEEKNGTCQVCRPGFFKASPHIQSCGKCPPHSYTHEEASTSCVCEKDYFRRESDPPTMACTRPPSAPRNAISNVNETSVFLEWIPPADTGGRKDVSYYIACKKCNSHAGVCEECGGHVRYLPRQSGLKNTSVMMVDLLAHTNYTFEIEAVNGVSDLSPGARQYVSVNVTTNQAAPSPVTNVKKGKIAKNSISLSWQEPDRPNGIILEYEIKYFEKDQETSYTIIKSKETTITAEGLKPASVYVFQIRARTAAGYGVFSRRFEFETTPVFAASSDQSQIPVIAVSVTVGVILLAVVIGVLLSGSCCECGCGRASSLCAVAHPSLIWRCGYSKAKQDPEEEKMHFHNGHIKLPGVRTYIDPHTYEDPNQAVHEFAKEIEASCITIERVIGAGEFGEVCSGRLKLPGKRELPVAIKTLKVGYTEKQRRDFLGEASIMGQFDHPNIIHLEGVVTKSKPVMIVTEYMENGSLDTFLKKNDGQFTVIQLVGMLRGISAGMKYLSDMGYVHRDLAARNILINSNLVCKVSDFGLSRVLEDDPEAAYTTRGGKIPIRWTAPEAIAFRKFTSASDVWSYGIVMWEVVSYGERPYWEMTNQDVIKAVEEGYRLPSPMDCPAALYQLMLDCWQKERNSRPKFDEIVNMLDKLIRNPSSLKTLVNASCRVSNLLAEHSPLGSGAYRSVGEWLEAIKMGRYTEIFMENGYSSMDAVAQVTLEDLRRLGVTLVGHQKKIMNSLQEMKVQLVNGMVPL
Chain of Mitogen-activated protein kinase kinase kinase 20 (Q9NYL2 whole entry): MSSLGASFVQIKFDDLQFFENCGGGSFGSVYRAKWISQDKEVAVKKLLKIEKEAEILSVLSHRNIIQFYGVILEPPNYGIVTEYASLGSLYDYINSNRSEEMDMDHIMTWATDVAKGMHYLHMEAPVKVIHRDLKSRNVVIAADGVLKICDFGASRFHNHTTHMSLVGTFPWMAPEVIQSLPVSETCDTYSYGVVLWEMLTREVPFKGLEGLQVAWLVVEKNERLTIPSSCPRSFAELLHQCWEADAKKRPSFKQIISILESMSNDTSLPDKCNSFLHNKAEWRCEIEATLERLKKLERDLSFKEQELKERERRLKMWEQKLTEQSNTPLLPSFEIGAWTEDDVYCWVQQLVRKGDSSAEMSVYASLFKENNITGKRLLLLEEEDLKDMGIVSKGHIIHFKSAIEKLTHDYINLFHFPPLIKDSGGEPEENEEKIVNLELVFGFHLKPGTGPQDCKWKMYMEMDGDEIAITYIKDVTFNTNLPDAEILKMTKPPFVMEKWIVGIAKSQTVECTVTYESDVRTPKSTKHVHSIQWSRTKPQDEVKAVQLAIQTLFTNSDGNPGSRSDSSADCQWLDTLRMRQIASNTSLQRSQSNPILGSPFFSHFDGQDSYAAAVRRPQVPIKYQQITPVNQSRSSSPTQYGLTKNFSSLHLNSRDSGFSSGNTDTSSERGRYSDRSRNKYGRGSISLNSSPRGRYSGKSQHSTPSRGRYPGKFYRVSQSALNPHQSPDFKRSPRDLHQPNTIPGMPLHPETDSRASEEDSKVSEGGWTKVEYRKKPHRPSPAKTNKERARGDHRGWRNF
Chain of Bone morphogenetic protein receptor type-1A (P36894 whole entry): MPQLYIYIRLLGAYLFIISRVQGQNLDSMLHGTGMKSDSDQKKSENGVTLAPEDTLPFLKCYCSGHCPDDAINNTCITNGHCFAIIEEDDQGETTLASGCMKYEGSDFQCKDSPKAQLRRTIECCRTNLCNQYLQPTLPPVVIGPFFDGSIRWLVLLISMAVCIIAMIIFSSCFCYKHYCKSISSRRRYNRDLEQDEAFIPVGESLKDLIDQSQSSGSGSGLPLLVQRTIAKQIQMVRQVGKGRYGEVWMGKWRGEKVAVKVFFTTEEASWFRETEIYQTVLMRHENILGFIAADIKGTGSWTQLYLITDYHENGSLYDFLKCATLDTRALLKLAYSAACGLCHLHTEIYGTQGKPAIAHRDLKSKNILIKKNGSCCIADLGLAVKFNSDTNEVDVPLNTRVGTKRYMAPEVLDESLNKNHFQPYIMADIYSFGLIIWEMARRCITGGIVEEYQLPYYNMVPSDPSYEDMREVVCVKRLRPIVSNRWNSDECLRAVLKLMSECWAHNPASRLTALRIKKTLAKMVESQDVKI

Take `COc1cc2c(Nc3ccc(Cl)c(Cl)c3F)ncnc2cc1OC[C@@H]1C[C@@H]2CN(C)C[C@@H]2C1` [TESEVATINIB]: the Kd in assay [1], in assay [2], in assay [3], in assay [4], in assay [5] and in assay [6] was > 30 µM (inactive) each time. The Kd in assay [7] and in assay [8] was > 30 µM (inactive) each time.
With `O=C(Cc1ccc(-c2ccc(OCCN3CCOCC3)cc2)cn1)NCc1ccccc1` [TIRBANIBULIN], the Kd in assay [1], in assay [2], in assay [3], in assay [4], in assay [5] and in assay [6] was > 30 µM (inactive) in each case. The Kd in assay [7] and in assay [8] was > 30 µM (inactive) in each case.
As to `O=C1NC(=O)[C@@H](c2cn3c4c(cccc24)CCC3)[C@@H]1c1c[nH]c2ccccc12` [TIVANTINIB], the Kd in assay [1], in assay [2], in assay [3], in assay [4], in assay [5] and in assay [6] was > 30 µM (inactive) throughout. The Kd in assay [7] and in assay [8] was > 30 µM (inactive) throughout.
As for `C[C@@H](NC(=O)c1ncnc(N)c1Cl)c1ncc(C(=O)Nc2cc(C(F)(F)F)c(Cl)cn2)s1` [TOVORAFENIB], the Kd is 11.1 µM (active) in assay [1]; > 30 µM (inactive) in assay [2]; > 30 µM (inactive) in assay [3]; > 30 µM (inactive) in assay [4]; > 30 µM (inactive) in assay [5]; > 30 µM (inactive) in assay [6]. Further, the Kd was 0.45 µM (active) in assay [7] and > 30 µM (inactive) in assay [8].
For the compound `Cc1cc(Nc2ncnc3ccc(NC4=NC(C)(C)CO4)cc23)ccc1Oc1ccn2ncnc2c1` [TUCATINIB], the Kd in assay [1], in assay [2], in assay [3], in assay [4], in assay [5] and in assay [6] was > 30 µM (inactive) each time. Further, the Kd in assay [7] and in assay [8] was > 30 µM (inactive) throughout.
`Cn1ncc(Cl)c1-c1cc(C(=O)N[C@H](CN)Cc2ccc(F)c(F)c2)oc1Cl` [UPROSERTIB]: the Kd in assay [1], in assay [2], in assay [3], in assay [4], in assay [5] and in assay [6] was > 30 µM (inactive) each time. Further, the Kd in assay [7] and in assay [8] was > 30 µM (inactive) in each case.
For `C[C@@H](N)c1ccc(C(=O)Nc2ccnc3[nH]ccc23)cc1` [Y-39983], the Kd in assay [1] was > 30 µM (inactive); in assay [2], > 30 µM (inactive); in assay [3] it was > 30 µM (inactive); in assay [4] it was > 30 µM (inactive); in assay [5], > 30 µM (inactive); in assay [6] it was 0.34 µM. For the same compound, the Kd in assay [7] and in assay [8] was > 30 µM (inactive) throughout.
Consider `CN1C/C=C/CCOc2cccc(c2)-c2ccnc(n2)Nc2cccc(c2)C1` [ZOTIRACICLIB], for which the Kd in assay [1] was > 30 µM (inactive); in assay [2], > 30 µM (inactive); in assay [3] it was > 30 µM (inactive); in assay [4], 0.319 µM; in assay [5] it was > 30 µM (inactive); in assay [6], > 30 µM (inactive). Moreover, the Kd in assay [7] and in assay [8] was > 30 µM (inactive) in each case.
